Like-named read-outs stand apart in the source and are kept apart here.
What was measured:
AhR [1] = test system: AhR
Protocol: With a fixed concentration (10 μM), the inventors compared in HepG2 cells the induction of CYP1A1 by Carbidopa with that by other known AhR agonists, which included 3-ethylcholanthrene, benzo[a]pyrene, kynurenine, indole-3-carbinol, and indole acetic acid (Table 1).

AhR [2] = conditions: BxPC-3, Carbidopa 10 μM, 6 h
AhR [3] = conditions: Capan-2
BxPC-3 cells [4] = experiment: Colony formation (clonogenic) assay, BxPC-3; assay type: cell-based, human
Protocol: Clonogenic assay was performed as described [12]. The cells were seeded at a very low density (500 cells/well) and allowed to attach to the substratum. They were then treated with 10 μM Carbidopa and the colonies were allowed to grow for two weeks. The wells were washed every other day and fresh Carbidopa was added to the wells. At the end of the two-week period, the wells were washed and the colonies were visualized with KaryoMax Giemsa stain after fixation with methanol. The stain was eluted with 1% sodium dodecyl sulfate in 0.2 NaOH and the absorbance was measured at 630 nm.

Panc-1 cells = experiment: Colony formation assay, Panc-1; assay type: cell-based; conditions: Homo sapiens; Panc-1, colony formation; read-out: Carbidopa concentration for 50% inhibition of growth
Text: Colony formation assay was used to assess the effect.

Capan-2 cells = experiment: Colony formation (clonogenic) assay, Capan-2; assay type: cell-based, human; conditions: Capan-2, 10 μM, two weeks
Protocol: (§1) Cell proliferation. Clonogenic assay was performed as described. The cells were seeded at a very low density (500 cells/well) and allowed to attach to the substratum. […] The wells were washed every other day and fresh Carbidopa was added to the wells. At the end of the two-week period, the wells were washed and the colonies were visualized with KaryoMax Giemsa stain after fixation with methanol. The stain was eluted with 1% sodium dodecyl sulfate in […] and the absorbance was measured at 630 nm. Inhibition of pancreatic cancer cell proliferation by Carbidopa and its potential relevance to the ability of the drug to inhibit IDO1. To test whether Carbidopa has anticancer effect, the inventors used pancreatic cancer as a model. For this, the inventors first conducted a colony formation assay with a human pancreatic normal cell line (hTERT-HPNE) and two human pancreatic cancer cell lines (BxPC-3 and Capan-2). […] To corroborate these in vitro data, the inventors performed subcutaneous xenografts in athymic nude mice using BxPC-3 cells.

hTERT-HPNE cells = experiment: Colony formation (clonogenic) assay, normal pancreatic cell line; assay type: cell-based, human; conditions: 10 μM, two weeks
Protocol: as §1

MB-231 cells = experiment: Colony formation assay, ER-negative breast cancer cells; assay type: cell-based, human
Text: Breast cancer occurs in different subtypes: estrogen receptor-positive, estrogen receptor-negative, and BRCA1-mutant. The MMTV-PyMT-Tg mice represent estrogen receptor-positive breast cancer at least at the initial stages. To assess the potential of Carbidopa for the treatment of ER-negative breast cancer, the inventors used the human breast cancer cell line MB-231, a well-established model to study ER-negative breast cancer in model systems. The inventors monitored the effect of Carbidopa (dose response) on the growth of these cells using the colony formation assay.

HCC-1937 cells = experiment: Colony formation assay, BRCA-1 mutant breast cancer cells; assay type: cell-based, human
Text: Breast cancer occurs in different subtypes: estrogen receptor-positive, estrogen receptor-negative, and BRCA1-mutant. Mutations in BRCA-1 represent a small percentage of breast cancers in women but the disease is inheritable. […] To assess the potential of Carbidopa for the treatment of mutant BRCA-1-driven breast cancer, the inventors used the human breast cancer cell line HCC-1937, a well-established model to study mutant BRCA-1-driven breast cancer in model systems. The inventors monitored the effect of Carbidopa (dose response) on the growth of these cells using the colony formation assay.

BxPC-3 cells [5] = experiment: Subcutaneous BxPC-3 xenograft in athymic nude mice; assay type: in vivo, mouse
Protocol: FIGS. 2A and 2B show the in vivo effect of Carbidopa on the growth of BxPC-3 cells in mouse xenografts. The cells were injected subcutaneously in athymic nude mice. Carbidopa (1 mg/mouse) was injected intraperitoneally (i.p.) two days prior to the injection of the tumor cells (prevention mode). Drug injection was continued every day at the same dose. […] The growth of the tumor at the injected site was monitored every other day.
Xenograft studies. Female athymic nu/nu mice (8-week-old) were allowed to acclimatize to the environment for about a week before the start of the experiment. The animals were divided into control and treatment groups and injected with phosphate-buffered saline (control group) and Carbidopa @ 1 mg/mouse/day) (treatment group) intraperitoneally, at least 5 days prior to tumor cell injection. BxPC-3 (10×10^6 cells in 30% matrigel) was injected subcutaneously at the right flank of the mice. The treatment continued all through the experimental period. Tumor size in different groups were measured using a caliper and the tumor volume was calculated using the formula (width^2×length)/2.

[6] = test system: spontaneous breast cancer driven by the polyoma middle T antigen oncogene; experiment: Spontaneous breast cancer in MMTV-PyMT-Tg mice; assay type: in vivo; conditions: 1 mg/mouse i.p.
Text: The MMTV-PyMT-Tg mice develop spontaneous breast tumors within 2 months of age. […] The drug treatment was started at 4 weeks of age and continued for two months. The mice were photographed at the end of this experimental period. The circles indicate the tumor size in two representative control mice and two representative Carbidopa-treated mice. […] The MMTV-PyMT-Tg mice develop spontaneous breast tumors within 2 months of age. […] The drug treatment was started at 4 weeks of age and continued for three months. The mice were photographed at the end of the study period. The circles indicate the tumor size in two representative control mice and two representative Carbidopa-treated mice.

[7] = test system: Ki-67, p-mTOR, HIF1α and Cyp1a1 protein expression; experiment: Immunohistochemical analysis in MMTV-PyMT-Tg mice; assay type: in vivo, mouse; conditions: Carbidopa-treated MMTV-PyMT-Tg mice
Text: FIG. 8 is an immunohistochemical analysis of Ki-67, p-mTOR, HIF1α and Cyp1a1 protein expression in MMTV-PyMT-Tg mice treated with and without Carbidopa. […] Hypoxia is a key regulatory factor in tumor progression and in response to the hypoxic tumor environment, it regulates cell metabolism and redox homeostasis. HIF1α level in tumors is controlled by mTOR. […] To further validate the data, the inventors measured the expression of Cyp1a1 in MMTV-PyMT-Tg mice treated with and without Carbidopa. Cyp1a1 is an aryl hydrocarbon (AhR) receptor-responsive gene induced in response to AhR activation. AhR is activated by kynurenine, a product of IDO1 action on tryptophan. Thus, Cyp1a1 levels in tumor tissues serve as a read out for IDO1 activity. […] H&E, hematoxylin and eosin stain.

[8] = molecular target: recombinant human indoleamine dioxygenase-1 (IDO1) (Homo sapiens, UniProt P14902); experiment: IDO1 enzymatic activity assay (colorimetric); assay type: biochemical
Chain of recombinant human indoleamine dioxygenase-1 (IDO1) (P14902 whole entry): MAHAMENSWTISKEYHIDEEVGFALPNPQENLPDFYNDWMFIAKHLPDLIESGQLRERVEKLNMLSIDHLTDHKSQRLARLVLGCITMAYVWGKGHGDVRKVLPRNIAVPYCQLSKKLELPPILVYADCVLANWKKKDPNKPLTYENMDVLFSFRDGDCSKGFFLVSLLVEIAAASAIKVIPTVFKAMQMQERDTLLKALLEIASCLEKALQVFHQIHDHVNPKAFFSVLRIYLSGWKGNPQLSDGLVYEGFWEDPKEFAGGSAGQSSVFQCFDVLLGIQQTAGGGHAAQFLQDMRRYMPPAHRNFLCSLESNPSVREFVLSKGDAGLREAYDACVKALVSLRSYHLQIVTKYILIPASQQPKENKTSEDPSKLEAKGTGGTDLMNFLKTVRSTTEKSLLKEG
Text: IDO-1 is an immunosuppressive enzyme that is induced in tumor cells and in immune cells present in tumor-draining lymph nodes. Induction of this enzyme suppresses the ability of the immune system to recognize tumor cells as foreign cells, which provides a means for the tumor cells to escape the immune attack. Pharmacological inhibition of this enzyme has potential in cancer treatment because such an approach will potentiate the ability of the immune system to kill the tumor cells. Many pharmaceutical companies have research programs in identifying selective inhibitors of IDO-1 for this purpose and some of the drugs are already in clinical trials in cancer patients. The present inventors assessed the ability of Carbidopa on the activity of this enzyme using the recombinant human enzyme.
To date, the only known pharmacological action of Carbidopa is the inhibition of aromatic amino acid decarboxylase, but the inventors are not aware of any direct association between this enzyme and cancer. Therefore, the inventors looked for new, hitherto unknown, pharmacological actions for this drug that could be related to the observed anticancer effect. […]

AhR [9] = experiment: Immunofluorescence localisation of AhR; assay type: cell-based, human; conditions: 25 μM for 6 h
Protocol: Immunofluorescence. Immunofluorescence studies were performed as described [12]. Briefly, cells grown on chamber slides were fixed, blocked and stained with mouse anti-AhR antibody (Abcam, Cambridge, Mass., USA) for 45 min after which they were washed and stained with secondary antibody (goat anti-mouse IgG) conjugated with Alexa Fluor 488 (Molecular Probes, Eugene, Oreg., USA); further washed and mounted with ProLong Diamond Antifade mountant with DAPI and the images were captured using a Nikon inverted microscope. Nuclei stained with DAPI are blue. Magnification, 100×.

[10] = human, oral, cited from earlier work
[11] = cited from earlier work
[12] = in vivo; cited from earlier work
[13] = in vivo; cited from earlier work; remark: listed apart in the source
[14] = molecular target: indoleamine-2,3-dioxygenase 1 (IDO1) (Homo sapiens, UniProt P14902); conditions: reference [13]; cited from earlier work
Chain of indoleamine-2,3-dioxygenase 1 (IDO1) (P14902 whole entry): as above

Cc1ccc2cc3c(ccc4ccccc43)c3c2c1CC3 [3-Methylcholanthrene]
CYP1A1 expression, Fold [range] (AhR [1]; HepG2 cells, 10 micromolar): 56.8 Fold

c1ccc2c(c1)cc1ccc3cccc4ccc2c1c34 [Benzo [a] pyrene]
CYP1A1 expression, Fold [range] (AhR [1]; HepG2 cells, 10 micromolar): 35.3 Fold

Cc1ccccc1N=Nc1ccc(NC(=O)c2ccnn2C)c(C)c1 [CH223191]
effect of AhR antagonist on Carbidopa-induced CYP1A1 expression (AhR [1]; HepG2, Carbidopa 10 μM, CH223191 10 μM, resveratrol 20 μM, 6 h): blocked
effect of AhR antagonist on Carbidopa-induced CYP1A1 expression (AhR [2]): blocked
effect of AhR antagonist on Carbidopa-induced CYP1A1 expression (AhR [3]): blocked

C[C@@](Cc1ccc(O)c(O)c1)(NN)C(=O)O [Carbidopa, (2S)-3-(3,4-dihydroxyphenyl)-2-hydrazino-2-methylpropanoic acid]
growth of BxPC-3 cells (BxPC-3 cells [4]; 10 μM Carbidopa, colony formation): almost completely abolished
number of colonies compared to untreated controls (BxPC-3 cells [4]; BxPC-3, 10 μM, two weeks): significantly reduced
IC50 (Panc-1 cells): < 50 µM
number of colonies compared to untreated controls (Capan-2 cells): significantly reduced
number of colonies compared to untreated controls (hTERT-HPNE cells): not seen
IC50 (MB-231 cells; Homo sapiens, MB-231, colony formation, read-out: Carbidopa concentration for 50% inhibition of growth): < 15 µM
effect on the growth of the cells (MB-231 cells; MB-231, dose response): marked inhibitory effect
effect on the growth of the cells (HCC-1937 cells; HCC-1937, dose response): marked inhibitory effect
IC50 (HCC-1937 cells; Homo sapiens, HCC1937, HCC-1937, colony formation, read-out: Carbidopa concentration for 50% inhibition of growth): < 25 µM
growth of the tumor (BxPC-3 cells [5]; 1 mg/mouse i.p. every day, prevention mode): reduced the growth of the tumor markedly
tumor volume compared to untreated controls (BxPC-3 cells [5]; daily dose of 1 mg/mouse, intraperitoneal): significantly reduced the tumor volume
number and size of the tumors ([6]; treatment for three months): reduced the number and size of the tumors
number and size of the tumors ([6]; treatment for two months): reduced the number and size of the tumors
Cyp1a1 expression in tumor tissues [7]: significant reduction in Cyp1a1 expression
HIF1α protein [7]: marked decrease in HIF1α protein
Ki-67 staining (cell proliferation) [7]: marked reduction in proliferation
p-mTOR staining [7]: marked reduction in p-mTOR staining
inhibition of IDO-1 enzyme activity ([8]; 10 μM): inhibits IDO-1 significantly
inhibition of IDO1 enzyme activity ([8]; colorimetric assay of kynurenine, efficacy said to be markedly underestimated): does indeed inhibit IDO1
localisation of AhR (AhR [9]; BxPC-3 cells): nuclear translocation of the receptor
localisation of AhR (AhR [9]; Capan-2 cells): nuclear translocation of the receptor
localisation of AhR (AhR [9]; HepG2 cells): led to the nuclear translocation of AhR
concentrations at which Carbidopa activates AhR (AhR [1]): 3000 to 10000 nM
CYP1A1 expression, Fold [range] (AhR [1]; human, 10 μM): 2.63 Fold
time post-treatment at which CYP1A1 induction is seen (AhR [1]; human, 10 μM): ≤ 3 h
plasma concentration ([10]; 75 mg/day dose): 2000 nM
plasma concentration ([10]; 450 mg/day dose): 16000 nM
side effects in humans ([11]; <400 mg/day in patients weighing 60 kg): no unwanted side effects
safety in humans ([11]; dose as high as 450 mg/day): safe
crossing of the blood-brain barrier [12]: inability of the latter to cross the blood-brain barrier
oral bioavailability [13]: orally bioavailable

OCc1c[nH]c2ccccc12 [Indole 3-carbinol]
CYP1A1 expression, Fold [range] (AhR [1]; HepG2 cells, 10 micromolar): 7.62 Fold

Nc1ccccc1C(=O)CC(N)C(=O)O (stereo not shown) [Kynurenine]
CYP1A1 expression, Fold [range] (AhR [1]; human, 10 μM): 3.97 Fold

N[C@@H](Cc1ccc(O)c(O)c1)C(=O)O [L-DOPA, L-3,4-dihydroxyphenylalanine]
CYP1A1 mRNA expression (AhR [1]; human, 6 h, 100 μM): did not affect CYP1A1 expression

NNc1ccccc1 [phenylhydrazine]
IC50 [14]: 8 ± 2 µM

— US10064834B2, “Carbidopa for the treatment of cancer” (Texas Tech University System, priority 2016, dated 2018)
